Legend:
[1] = Microsomal stability assay, human liver microsomes; type: in vitro ADME; details: pre-incubation with Cobi vs without
[2] = Microsomal stability assay, mouse liver microsomes; type: in vitro ADME; details: pre-incubation with Cobi vs without
Cytotoxicity assay = type: cell-based; details: human, TZM-GFP cells

SMILES: CN(C(=O)[C@H](Cc1ccccc1)NC(=O)Cc1c[nH]c2ccccc12)c1ccc(Br)cc1 [Compd 32, (S)-2-(2-(1H-indol-3-yl)acetamido)-N-(4-bromophenyl)-N-methyl-3-phenylpropanamide]
- increase of half-life with Cobicistat (HLM) [1]: 62 fold
- increase of half-life with Cobicistat (MLM) [2]: 74 fold

SMILES: CN(C(=O)[C@H](Cc1ccccc1)NC(=O)Cc1c[nH]c2ccccc12)c1ccc(Cl)nc1 [Compd 37, (S)-2-(2-(1H-indol-3-yl)acetamido)-N-(6-chloropyridin-3-yl)-N-methyl-3-phenylpropanamide]
- CC50 at 72 h (Cytotoxicity assay): 57 ± 0.3 µM
